# Test results taken from patent publication US20200165194A1, “ADDITIVE COMPOSITION FOR CULTURE MEDIUM, ADDITIVE COMPOUND FOR CULTURE MEDIUM, AND METHOD FOR CULTURE OF CELLS OR TISSUE USING SAME” (NISSAN CHEMICAL CORPORATION, priority 2017, published 2020).
# Like-named read-outs stand apart in the source and are kept apart here.
# Tests used:
# [1] = tested on: human alveolar basal epithelial adenocarcinoma-derived cell line A549; experiment: Various human cancer cells-2, 3D culture, ATP assay (Experimental Example 6); format: cell-based; conditions: 4 days
# Experimental: (§1) Various human-derived cancer cells were precultured (single layer culture) in respective media shown below. […] The above-mentioned cells in the logarithmic growth phase were washed with PBS, a 0.25 w/v % trypsin-1 mmol/L EDTA (ethylenediaminetetraacetic acid) solution (manufactured by Wako Pure Chemical Industries, Ltd.) was added, and adherent cells were detached by incubating at 37° C. for 1-5 min. Each medium was added and the mixture was centrifuged. After resuspension in the same medium, each cell was recovered.
# (§2) The aforementioned various cells were suspended in respective deacylated gellan gum-containing or not containing media (deacylated gellan gum concentration was 0.015 w/v %), and seeded in a 96 well low attachment U-bottom plate (manufactured by Corning, #4520, deacylated gellan gum-free medium), or a low attachment flat bottom plate (manufactured by Corning, #3474, deacylated gellan gum-containing medium) at a cell concentration of 700-12000 cells/90 μL/well (all 3D culture). […] The amount of each compound solution to be added was 10 μL/well. As a control, a DMSO solution dissolved in a medium was added (DMSO final concentration 0.1%). […] When compared with the compound no-addition (control), one showing a value of not more than 119% as -, one showing a value of not less than 120% as ◯, and one showing a value of not less than 150% as ⊚ are shown in the eleventh table and the twelfth table. Unperformed test is left blank.
# [2] = tested on: human ovarian cancer cell line SKOV3; experiment: as above; format: cell-based; conditions: 4 days
# Experimental: as §1, §2
# [3] = tested on: a plurality of cancer cell lines; experiment: Various human cancer cells-2, summary over the cell lines (Experimental Example 6); format: cell-based; conditions: cancer cell lines under three-dimensional conditions
# Experimental: as §1, §2
# [4] = tested on: Bone marrow-derived human mesenchymal stem cells (BM-hMSC); experiment: Human mesenchymal stem cell-2: 3D, EZSPHERE and 2D culture, ATP assay (Experimental Example 10); format: cell-based; conditions: for viability at 1 µM / viability at 5 µM / viability at 10 µM / viability at 20 µM: Homo sapiens, Mesenchymal stem cells, 96 h, BM-hMSC, 4 days, non-addition = 100%, read-out: relative value of RLU (number of viable cells)
# Experimental: Bone marrow-derived human mesenchymal stem cells (BM-hMSC, manufactured by PromoCell) were precultured by a single layer culture method (2D) using a mesenchymal stem cell proliferation medium (manufactured by PromoCell). In three-dimensional culture method (3D), hMSC was suspended in a medium composition added with deacylated gellan gum, and seeded in a […] flat bottom Ultr-low Attachment surface plate (manufactured by Corning Incorporated, #3474) at 6000 cells/90 μL/well. In the three-dimensional culture method using EZSPHERE (EZSPHERE), hMSC was suspended in a deacylated gellan gum-free medium composition, and seeded in a 96-well EZSPHERE plate (manufactured by AGC TECHNO GLASS CO., LTD., #4860-900) at 2000 cells/90 μL/well. In 2D, hMSC was suspended in a deacylated gellan gum-free medium composition, and seeded in a 96-well flat bottom plate (manufactured by Corning Incorporated, #3585) at 2000 cells/90 μL/well. […] As a control, DMSO was added at a final concentration of 0.1%.
# plural animal cell lines = experiment: Animal cell lines, summary over the cell lines (Experimental Example 15); format: cell-based; conditions: animal cell lines under three-dimensional conditions
# Excerpt: Various animal cell lines were precultured (single layer culture) as follows in respective media. Chinese hamster ovary-derived cell line CHO-K1 (manufactured by DS PHARMA BIO MEDICAL, 10% fetal bovine serum (FBS, manufactured by Corning)-containing Ham's F-12 medium (manufactured by Fujifilm Wako Pure Chemical Corporation)), Cercopithecus aethiops kidney epithelium-derived cell line Vero (purchased from JCRB cell bank, 5% FBS-containing Medium 199 medium (manufactured by Life Technologies)). The above-mentioned cells in the logarithmic growth phase were washed with PBS, a 0.25 w/v % trypsin-1 mmol/L EDTA (ethylenediaminetetraacetic acid) solution (manufactured by Fujifilm Wako Pure Chemical Corporation) was added, and adherent cells were detached by incubating at 37° C. for 3 min. Each medium was added and the mixture was centrifuged and resuspended in the same medium.
# The aforementioned various animal cells were suspended in respective deacylated gellan gum-containing or not containing media (deacylated gellan gum concentration was 0.02 w/v % in Ham's F-12 medium, 0.015 w/v % in Medium 199 medium), and seeded in a 96 well low attachment U-bottom plate (manufactured by Corning, #4520, deacylated gellan gum-free medium), or a low attachment flat bottom plate (manufactured by Corning, #3474, deacylated gellan gum-containing medium) at a cell concentration of 700-2000 cells/90 μL/well (all 3D culture). […] The amount of each compound solution to be added was […]. As a control, a DMSO solution dissolved in a medium was added (DMSO final concentration 0.1%). […] When compared with the compound non-addition (control), one showing a value of not more than 119% as -, one showing a value of not less than 120% as ◯, and one showing a value of not less than 150% as ⊚ are shown in the twenty-third table and the twenty-fourth table.
# [5] = tested on: human ovarian cancer cell line SKOV3; experiment: Action on SKOV3 cell-2: 3D (deacylated gellan gum) and 2D culture, EGF medium, ATP assay (Experimental Example 3); conditions: for viability at 1 µM / viability at 5 µM / viability at 10 µM / viability at 20 µM: Homo sapiens, SK-OV-3, 96 h, 4 days, compound non-addition = 100%
# [6] = low attachment U-bottom plate, 5 μM
# [7] = low attachment U-bottom plate, 10 μM
# [8] = low attachment flat bottom plate (gellan gum medium), 5 μM
# [9] = low attachment flat bottom plate (gellan gum medium), 10 μM
# [10] = three-dimensional cell culture conditions
# [11] = read-out: relative value of RLU (number of viable cells), 2D single layer culture
# [12] = read-out: relative value of RLU (number of viable cells), 3D culture (deacylated gellan gum)
# [13] = single layer culture (2D) of SKOV3 cells
# [14] = three-dimensional culture (3D) of SKOV3 cells
Structure (SMILES),"number of viable cells (RLU), relative value to control (100%) [1, 6]","number of viable cells (RLU), relative value to control (100%) [1, 7]","number of viable cells (RLU), relative value to control (100%) [1, 8]","number of viable cells (RLU), relative value to control (100%) [1, 9]","number of viable cells (RLU), relative value to control (100%) [2, 6]","number of viable cells (RLU), relative value to control (100%) [2, 7]","number of viable cells (RLU), relative value to control (100%) [2, 8]","number of viable cells (RLU), relative value to control (100%) [2, 9]",proliferation activity (in words) [3],viability at 1 µM ([4]; 2D) [%],viability at 5 µM ([4]; 2D) [%],viability at 10 µM ([4]; 2D) [%],viability at 20 µM ([4]; 2D) [%],viability at 1 µM ([4]; 3D (deacylated gellan gum)) [%],viability at 5 µM ([4]; 3D (deacylated gellan gum)) [%],viability at 10 µM ([4]; 3D (deacylated gellan gum)) [%],viability at 20 µM ([4]; 3D (deacylated gellan gum)) [%],viability at 1 µM ([4]; EZSPHERE plate) [%],viability at 5 µM ([4]; EZSPHERE plate) [%],proliferation activity (in words) (plural animal cell lines),further results
CC/C(=N\NC(=O)C(C)Nc1ccccc1)c1ccc(O)c(C)c1O (centres unmarked) [k-1:B-1],⊙,⊙,⊙,⊙,⊙,⊙,⊙,⊙,promoted proliferation activity in a plurality of cancer cell lines,109,125,158,164,139,298,418,420,154,247,promoted proliferation activity in plural animal cell lines,"viability at 10 µM ([4]; EZSPHERE plate): 297%; viability at 20 µM ([4]; EZSPHERE plate): 278%; proliferation activity (in words) [4, 10]: promoted proliferation activity of BM-hMSC; proliferation activity (in words) ([4]; two-dimensional cell culture conditions): promoted proliferation activity of hMSC; viability at 1 µM [5, 11]: 95%; viability at 5 µM [5, 11]: 99%; viability at 10 µM [5, 11]: 97%; viability at 20 µM [5, 11]: 74%; viability at 1 µM [5, 12]: 127%; viability at 5 µM [5, 12]: 181%; viability at 10 µM [5, 12]: 177%; viability at 20 µM [5, 12]: 158%; cell proliferation promoting effect (in words) [5, 13]: a favorable cell proliferation promoting effect was not observed; cell proliferation promoting effect (in words) [5, 14]: exhibited cell proliferation promoting effect at a wide concentration range"
CC/C(=N\NC(=O)CNc1cccc(O)c1)c1ccc(O)c(C)c1O [k-1:D-1],⊙,⊙,⊙,⊙,⊙,⊙,⊙,⊙,promoted proliferation activity in a plurality of cancer cell lines,111,125,112,92,170,640,771,688,169,310,promoted proliferation activity in plural animal cell lines,"viability at 10 µM ([4]; EZSPHERE plate): 339%; viability at 20 µM ([4]; EZSPHERE plate): 275%; proliferation activity (in words) [4, 10]: promoted proliferation activity of BM-hMSC; viability at 1 µM [5, 11]: 95%; viability at 5 µM [5, 11]: 102%; viability at 10 µM [5, 11]: 98%; viability at 20 µM [5, 11]: 83%; viability at 1 µM [5, 12]: 140%; viability at 5 µM [5, 12]: 174%; viability at 10 µM [5, 12]: 168%; viability at 20 µM [5, 12]: 136%; cell proliferation promoting effect (in words) [5, 13]: a favorable cell proliferation promoting effect was not observed; cell proliferation promoting effect (in words) [5, 14]: exhibited cell proliferation promoting effect at a wide concentration range"
CCC(=NNC(=O)C(CC)Nc1ccccc1)c1ccc(O)c(C)c1O (centres unmarked) [k-1:H-7],,,,,,,,,,,,,,,,,,,,promoted proliferation activity in plural animal cell lines,
